According to ChEMBL document CHEMBL1201862, “PubChem BioAssay data set” (2004):
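The compound was tested at five concentrations on cells cultured in 96-well plates, with a 48-hour exposure period. GI50: concentration for 50% inhibition of growth.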 Activity calls are given as the source filed them. Rule as the data show it: active = GI50 up to about 1.1 µM and inactive = higher.

How the values were obtained:
Assay in all cases: NCI tumour cell line growth inhibition, 48 h
[1] = system: ACHN
[2] = system: MDA-MB-435
[3] = system: OVCAR-3
[4] = system: MDA-MB-231
[5] = system: HCC 2998
[6] = system: SK-MEL-2
[7] = system: T47D
[8] = system: SW-620
[9] = system: SF-295
[10] = system: IGROV-1
[11] = system: UO-31
[12] = system: LOX IMVI
[13] = system: TK-10
[14] = system: MCF7
[15] = system: SF-268
[16] = system: K562
[17] = system: SR
[18] = system: NCI-H522
[19] = system: CCRF-CEM
[20] = system: UACC-62

| Structure (SMILES) | GI50 [1] | GI50 [2] | GI50 [3] | GI50 [4] | GI50 [5] | GI50 [6] | GI50 [7] | GI50 [8] | GI50 [9] | GI50 [10] | GI50 [11] | GI50 [12] | GI50 [13] | GI50 [14] | GI50 [15] | GI50 [16] | GI50 [17] | GI50 [18] | GI50 [19] | GI50 [20] |
| --- | --- | --- | --- | --- | --- | --- | --- | --- | --- | --- | --- | --- | --- | --- | --- | --- | --- | --- | --- | --- |
| CC1=CC(=O)/C(=C/N2C(=O)CNC2=S)C(=O)O1 | > 100 µM (inactive) | > 100 µM (inactive) | > 100 µM (inactive) | > 100 µM (inactive) | > 100 µM (inactive) | > 100 µM (inactive) | > 100 µM (inactive) | > 100 µM (inactive) | > 100 µM (inactive) | > 100 µM (inactive) | > 100 µM (inactive) | > 100 µM (inactive) | > 100 µM (inactive) | > 100 µM (inactive) | – | – | – | – | – | – |
| OCC1(CNc2cc(Cl)ncn2)CCC1 | > 100 µM (inactive) | > 100 µM (inactive) | > 100 µM (inactive) | > 100 µM (inactive) | – | > 100 µM (inactive) | – | > 100 µM (inactive) | > 100 µM (inactive) | > 100 µM (inactive) | > 100 µM (inactive) | > 100 µM (inactive) | > 100 µM (inactive) | > 100 µM (inactive) | > 100 µM (inactive) | > 100 µM (inactive) | > 100 µM (inactive) | > 100 µM (inactive) | > 100 µM (inactive) | – |
| CN(CN1C(=O)C2Cc3ccccc3CN2C1=O)c1ccccn1 (stereo not drawn) | > 100 µM (inactive) | – | > 100 µM (inactive) | – | > 100 µM (inactive) | > 100 µM (inactive) | – | > 100 µM (inactive) | > 100 µM (inactive) | > 100 µM (inactive) | > 100 µM (inactive) | > 100 µM (inactive) | > 100 µM (inactive) | – | > 100 µM (inactive) | > 100 µM (inactive) | > 100 µM (inactive) | > 100 µM (inactive) | > 100 µM (inactive) | > 100 µM (inactive) |
| CC1(C)CC2C(=O)c3ccccc3NC2c2ccccc21 (stereo not drawn) | 14.4 µM (inactive) | 0.326 µM (active) | 4.29 µM (inactive) | – | 5.86 µM (inactive) | – | 4.51 µM (inactive) | 3.9 µM (inactive) | 1.84 µM (inactive) | 7.13 µM (inactive) | 6.03 µM (inactive) | 4.76 µM (inactive) | 12 µM (inactive) | 4.33 µM (inactive) | 14.6 µM (inactive) | 1.09 µM (active) | – | 1.53 µM (inactive) | 4.34 µM (inactive) | 3.9 µM (inactive) |
| CC1=CC2CC(C)=C(CC[C@]3(C)CC[C@H]([C@@H](C)C(=O)O)OO3)C(C)(C)C2CC1 (stereo partly drawn) | 1.3 µM (inactive) | – | 1.63 µM (inactive) | – | 0.292 µM (active) | 1.6 µM (inactive) | – | 0.177 µM (active) | 1.36 µM (inactive) | 0.212 µM (active) | 0.984 µM (active) | 0.0792 µM (active) | 1.76 µM (inactive) | – | 1.62 µM (inactive) | 0.208 µM (active) | 0.195 µM (active) | 0.171 µM (active) | 0.182 µM (active) | 1.49 µM (inactive) |
| COc1cc(C(=O)NNC(=O)c2cc(Br)ccc2NC(=O)c2cccs2)cc(OC)c1OC | 17 µM (inactive) | 19.8 µM (inactive) | 24.2 µM (inactive) | – | – | 18.6 µM (inactive) | 19.5 µM (inactive) | 28.1 µM (inactive) | 19.1 µM (inactive) | 22.6 µM (inactive) | 14.4 µM (inactive) | 15.3 µM (inactive) | 25.3 µM (inactive) | 14.4 µM (inactive) | 9.64 µM (inactive) | < 0.01 µM (active) | 22.9 µM (inactive) | 20.7 µM (inactive) | 18.1 µM (inactive) | 16.7 µM (inactive) |
| Cc1n[n+]([O-])c(C)cc1[N+](=O)[O-] | 16.6 µM (inactive) | 15.6 µM (inactive) | 14.5 µM (inactive) | 18.2 µM (inactive) | 12.5 µM (inactive) | 20.1 µM (inactive) | 17.4 µM (inactive) | 15 µM (inactive) | – | 21.8 µM (inactive) | 16.2 µM (inactive) | 20.9 µM (inactive) | 8.67 µM (inactive) | 17.3 µM (inactive) | 46 µM (inactive) | – | – | 12.3 µM (inactive) | 1.36 µM (inactive) | 17.7 µM (inactive) |
| COC(=O)C1(C(=O)OC)CC2=C(S(=O)(=O)c3ccccc3)C[C@H](C#N)[C@H]2C1 | > 100 µM (inactive) | 49.1 µM (inactive) | – | > 100 µM (inactive) | – | > 100 µM (inactive) | 57.5 µM (inactive) | > 100 µM (inactive) | > 100 µM (inactive) | 44.6 µM (inactive) | > 100 µM (inactive) | > 100 µM (inactive) | > 100 µM (inactive) | 24 µM (inactive) | > 100 µM (inactive) | – | – | 46.3 µM (inactive) | > 100 µM (inactive) | > 100 µM (inactive) |
| C/C(=C/C(=O)Nn1c(Cc2ccccc2)n[nH]c1=O)C(=O)O | > 100 µM (inactive) | > 100 µM (inactive) | > 100 µM (inactive) | > 100 µM (inactive) | > 100 µM (inactive) | > 100 µM (inactive) | > 100 µM (inactive) | > 100 µM (inactive) | > 100 µM (inactive) | > 100 µM (inactive) | > 100 µM (inactive) | > 100 µM (inactive) | > 100 µM (inactive) | > 100 µM (inactive) | > 100 µM (inactive) | > 100 µM (inactive) | – | > 100 µM (inactive) | > 100 µM (inactive) | > 100 µM (inactive) |
| O=CC1C(=O)Nc2nc3ccccc3n2C1c1ccccc1 (stereo not drawn) | 17.3 µM (inactive) | 17.9 µM (inactive) | 7.89 µM (inactive) | 15.4 µM (inactive) | – | 17.3 µM (inactive) | < 0.01 µM (active) | 17.8 µM (inactive) | 20.9 µM (inactive) | 13.9 µM (inactive) | 13.7 µM (inactive) | 11.1 µM (inactive) | 28.6 µM (inactive) | 10.6 µM (inactive) | 12.1 µM (inactive) | 4.37 µM (inactive) | – | 12.8 µM (inactive) | 4.38 µM (inactive) | 15.7 µM (inactive) |
| CCOC(=O)C(=[N+]=[N-])C(=O)C1(C(=O)OCC)CCN(C(=O)c2ccccc2)C1=O (stereo not drawn) | > 100 µM (inactive) | – | – | > 100 µM (inactive) | – | > 100 µM (inactive) | > 100 µM (inactive) | – | > 100 µM (inactive) | > 100 µM (inactive) | > 100 µM (inactive) | > 100 µM (inactive) | > 100 µM (inactive) | > 100 µM (inactive) | > 100 µM (inactive) | – | – | > 100 µM (inactive) | > 100 µM (inactive) | > 100 µM (inactive) |
| CC(C)(C)NCc1cc(C(C)(C)C)cc(-c2ccc(Cl)cc2)c1O | 13.8 µM (inactive) | 12.6 µM (inactive) | 15.6 µM (inactive) | 11.2 µM (inactive) | 14.7 µM (inactive) | 18.4 µM (inactive) | – | – | 17.3 µM (inactive) | 11.2 µM (inactive) | 2.82 µM (inactive) | – | 12 µM (inactive) | 14.6 µM (inactive) | 12.6 µM (inactive) | – | 10.9 µM (inactive) | 11 µM (inactive) | – | 13.7 µM (inactive) |
| COc1cccc2nc3c(C(=O)NCCN(C)C)cccc3nc12 | 4.3 µM (inactive) | – | 18.1 µM (inactive) | – | 10.8 µM (inactive) | 8.73 µM (inactive) | – | 5.42 µM (inactive) | 10.1 µM (inactive) | 16.1 µM (inactive) | 12.2 µM (inactive) | 4.2 µM (inactive) | 11 µM (inactive) | – | 0.713 µM (active) | 3.76 µM (inactive) | 3.38 µM (inactive) | 11.9 µM (inactive) | 5.35 µM (inactive) | 12.6 µM (inactive) |
| CCOC(=O)c1ccc(-c2cc(C)[nH]n2)[nH]1 | > 100 µM (inactive) | > 100 µM (inactive) | > 100 µM (inactive) | > 100 µM (inactive) | – | > 100 µM (inactive) | 85.5 µM (inactive) | > 100 µM (inactive) | > 100 µM (inactive) | – | > 100 µM (inactive) | > 100 µM (inactive) | > 100 µM (inactive) | – | > 100 µM (inactive) | – | – | > 100 µM (inactive) | > 100 µM (inactive) | > 100 µM (inactive) |
| O=C(CC(=O)CC(O)(C(F)(F)F)C(F)(F)F)CC(O)(C(F)(F)F)C(F)(F)F | > 10 µM (inactive) | > 10 µM (inactive) | > 10 µM (inactive) | > 10 µM (inactive) | – | > 10 µM (inactive) | > 10 µM (inactive) | > 10 µM (inactive) | > 10 µM (inactive) | > 10 µM (inactive) | > 10 µM (inactive) | > 10 µM (inactive) | > 10 µM (inactive) | > 10 µM (inactive) | > 10 µM (inactive) | > 10 µM (inactive) | – | > 10 µM (inactive) | > 10 µM (inactive) | > 10 µM (inactive) |
| CC1=C(C(=O)Nc2ccccc2C)C(c2ccccc2)C(C(=O)Nc2ccccc2C)=C(C)N1 | 26.3 µM (inactive) | – | 31.8 µM (inactive) | – | 32.4 µM (inactive) | 26.6 µM (inactive) | – | 30.5 µM (inactive) | 36.5 µM (inactive) | 42.7 µM (inactive) | 35.2 µM (inactive) | 16 µM (inactive) | 98.6 µM (inactive) | – | > 100 µM (inactive) | 22.6 µM (inactive) | 11.7 µM (inactive) | 28.6 µM (inactive) | 20.9 µM (inactive) | 27.1 µM (inactive) |
| COC(=O)[C@]12CCC(C)[C@H](C)[C@H]1C1=CCC3[C@@]4(C)CC[C@H](OC(C)=O)C(C)(C)C4CC[C@@]3(C)C1(C)C(O)C2 (stereo partly drawn) | > 100 µM (inactive) | – | > 100 µM (inactive) | – | > 100 µM (inactive) | > 100 µM (inactive) | – | > 100 µM (inactive) | > 100 µM (inactive) | > 100 µM (inactive) | > 100 µM (inactive) | 74 µM (inactive) | > 100 µM (inactive) | – | > 100 µM (inactive) | 89.1 µM (inactive) | > 100 µM (inactive) | > 100 µM (inactive) | 89.3 µM (inactive) | > 100 µM (inactive) |
